Values quoted from earlier work, collected in JP2018030810A, “ゲフィチニブを有効成分とする医薬錠剤の製造方法” (Nippon Kayaku Co Ltd, priority 2016, dated 2018).
Converted amounts (≈) assume the structure as drawn. Read-outs that look alike come from different tables or passages of the source.

COc1cc2ncnc(Nc3ccc(F)c(Cl)c3)c2cc1OCCCN1CCOCC1 [ゲフィチニブ, N−(3−クロロ−4−フルオロフェニル)−7−メトキシ−6−[3−(モルフォリン−4−イル)プロポキシ]キナゾリン−4−アミン]
solubility (in words) (pH1): 可溶性 | solubility (in words) (pH4〜6): 溶解度は大きく低下 | solubility (pH6): ~1000 µg/mL (≈ 2240 µM) | solubility (in words) (pH7): 実質的に不溶性 | aqueous solubility (in words) (small intestine environment, pH4〜8): 水溶解度が極端に低下する | aqueous solubility (in words) (stomach, acidic environment pH1〜4): 良好な水溶解度 | solubility (in words) (water): ほとんど溶解しない
